According to patent US20240246964A1 (Arbutus Biopharma Corporation, priority 2021, published 2024):

Key:
[1] = molecular target: PD-L1 His protein / PD-1 Fc protein (Homo sapiens (Human), UniProt Q9NZQ7); test: HTRF Assay (PD-1/PD-L1 interaction); format: binding; settings: PD-L1 His 6 nM, PD-1 Fc 6 nM
[2] = molecular target: human PD-L1 (Homo sapiens (Human), UniProt Q9NZQ7); test: T cell activation luciferase reporter cell culture system (T Cell Activation Assay); format: cell-based; settings: luciferase reporter assay; PD-L1 aAPC/CHO-K1 cells with PD-1 effector Jurkat T cells
Chain of human PD-L1 (Q9NZQ7 19-290): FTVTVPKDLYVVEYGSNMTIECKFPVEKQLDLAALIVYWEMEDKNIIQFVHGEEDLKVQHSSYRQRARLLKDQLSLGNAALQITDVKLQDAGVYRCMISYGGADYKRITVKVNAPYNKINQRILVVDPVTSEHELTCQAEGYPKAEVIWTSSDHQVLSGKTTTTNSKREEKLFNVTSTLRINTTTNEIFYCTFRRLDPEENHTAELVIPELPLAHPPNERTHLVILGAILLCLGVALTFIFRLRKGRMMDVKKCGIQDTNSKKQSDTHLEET

Chain of PD-L1 His protein / PD-1 Fc protein (Q9NZQ7 19-238): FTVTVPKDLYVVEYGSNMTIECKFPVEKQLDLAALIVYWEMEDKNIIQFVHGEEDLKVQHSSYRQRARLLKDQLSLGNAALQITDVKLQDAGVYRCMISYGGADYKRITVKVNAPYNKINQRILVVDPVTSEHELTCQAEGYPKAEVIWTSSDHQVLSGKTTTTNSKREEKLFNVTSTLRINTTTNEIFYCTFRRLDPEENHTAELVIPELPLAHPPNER

SMILES | IC50 [1] [nM] | EC50 [2] [nM]
COc1cc(-c2nccc(-c3cccc(-c4ccc(CNC5CCOCC5)c(OC)n4)c3C#N)c2Cl)ccc1CNC1CCOCC1 [Example 652, 2-(3-Chloro-2-(3-methoxy-4-(((tetrahydro-2H-pyran-4-yl)amino)methyl)phenyl)pyridin-4-yl)-6-(6-methoxy-5-(((tetrahydro-2H-pyran-4-yl)amino)methyl)pyridin-2-yl)benzonitrile] | 0.07 | 227
COc1nc(-c2ccnc(-c3cccc4c3CC[C@@H]4Oc3nc(OC)c(CNC[C@@H](C)O)cc3C(F)(F)F)c2Cl)ccc1CNC[C@@H]1CCC(=O)N1 [Compound 165, (S)-5-((((3′-chloro-2′-((S)-1-((5-((( ®-2-hydroxypropyl)amino)methyl)-6-methoxy-3-(trifluoromethyl)pyridine-2-yl)oxy)-2,3-dihydro-1H-inden-4-yl)-6-methoxy-[2,4′-bipyridin]-5-yl)methyl)amino)methyl)pyridine1332ne-2-one] | 0.35 | 4.15
COCC(=O)N1CCC(NCc2ccc(-c3nccc(-c4cccc(-c5ccc(CNC6CCN(C(C)=O)CC6)c(OC)n5)c4Cl)c3Cl)cc2OC)CC1 [Example 413, 1-(4-((4-(4-(3-(5-(((1-Acetylpiperidin-4-yl)amino)methyl)-6-methoxypyridin-2-yl)-2-chlorophenyl)-3-chloropyridin-2-yl)-2-methoxybenzyl)amino)piperidin-1-yl)-2-methoxyethan-1-one] | 1.45 | 16.1
COc1cc(-c2nccc(-c3cccc(-c4ccc(CNC5CCN(C(C)=O)CC5)c(OC)n4)c3Cl)c2Cl)ccc1CN(C)C1CCOCC1 [Example 427, 1-(4-(((6-(2-chloro-3-(3-chloro-2-(3-methoxy-4-((methyl(tetrahydro-2H-pyran-4-yl)amino)methyl)phenyl)pyridin-4-yl)phenyl)-2-methoxypyridin-3-yl)methyl)amino)piperidin-1-yl)ethan-1-one] | 8.8 | 25
COc1cc(-c2ncnc(-c3cccc(-c4ccc(CNCc5cnco5)c(OC)n4)c3Cl)c2Cl)ccc1CNCc1cnco1 [Example 643, 1-(6-(2-Chloro-3-(5-chloro-6-(3-methoxy-4-(((oxazol-5-ylmethyl)amino)methyl)phenyl)pyrimidin-4-yl)phenyl)-2-methoxypyridin-3-yl)-N-(oxazol-5-ylmethyl)methanamine] | 4.17 | 1530
COc1cc(-c2nccc(-c3cccc(-c4ccc(CN5CCC(O)CC5)c(OC)n4)c3Cl)c2Cl)ccc1CN1CC2(CCN(C(C)=O)C2)C1 [Example 693, 1-(2-(4-(3-Chloro-4-(2-chloro-3-(5-((4-hydroxypiperidin-1-yl)methyl)-6-methoxypyridin-2-yl)phenyl)pyridin-2-yl)-2-methoxybenzyl)-2,6-diazaspiro[3.4]octan-6-yl)ethan-1-one] | 0.71 | 26.1
COc1cc(-c2nccc(-c3cccc(-c4ccc(CNC5CCN(C(C)=O)CC5)c(OC)n4)c3Cl)c2Cl)ccc1CNC1CCNCC1 [Example 417, 1-(4-(((6-(2-chloro-3-(3-chloro-2-(3-methoxy-4-((piperidin-4-ylamino)methyl)phenyl)pyridin-4-yl)phenyl)-2-methoxypyridin-3-yl)methyl)amino)piperidin-1-yl)ethan-1-one] | 3.67 | 58.3
COc1cc(-c2cncc(-c3cccc(-c4ccc(CN5CC6(CNC(=O)C6)C5)c(OC)n4)c3Cl)c2Cl)ccc1CN1CC2(CNC(=O)C2)C1 [Compound 642, 2-(4-(4-Chloro-5-(2-chloro-3-(6-methoxy-5-((7-oxo-2,6-diazaspiro[3.4]octan-2-yl)methyl)pyridin-2-yl)phenyl)pyridin-3-yl)-2-methoxybenzyl)-2,6-diazaspiro[3.4]octan-7-one] | 0.19 | 181
COc1cc(-c2nccc(-c3cccc(-c4ccc(CN5CC6(CCC(=O)N6)C5)c(OC)n4)c3Cl)c2Cl)ccc1CN1CC2(CCC(=O)N2)C1 [Example 398, 2-((6-(2-Chloro-3-(3-chloro-2-(3-methoxy-4-((6-oxo-2,5-diazaspiro[3.4]octan-2-yl)methyl)phenyl)pyridin-4-yl)phenyl)-2-methoxypyridin-3-yl)methyl)-2,5-diazaspiro[3.4]octan-6-one] | 0.278 | 8.54
COc1cc(-c2ncnc(-c3cccc(-c4ccc(CNC5CCN(C(C)=O)CC5)c(OC)n4)c3Cl)c2C)ccc1CNC1CCN(C(C)=O)CC1 [Example 522, 1-(4-(((6-(3-(6-(4-(((1-Acetylpiperidin-4-yl)amino)methyl)-3-methoxyphenyl)-5-methylpyrimidin-4-yl)-2-chlorophenyl)-2-methoxypyridin-3-yl)methyl)amino)piperidin-1-yl)ethan-1-one] | 2.05 | ≥ 10000
COC(=O)C1(NCc2cc(C(F)(F)F)c(N[C@H]3CCc4c(-c5nccc(-c6ccc(CNC[C@@H]7CCC(=O)N7)c(OC)n6)c5Cl)cccc43)nc2OC)CC1 [Compound 149, methyl 1-(((6-(((S)-4-(3′-chloro-6-methoxy-5-(((((S)-5-oxopyrrolidin-2-yl)methyl)amino)methyl)-[2,4′-bipyridin]-2′-yl)-2,3-dihydro-1H-inden-1-yl)amino)-2-methoxy-5-(trifluoromethyl)pyridin-3-yl)methyl)amino)cyclopropane-1-carboxy late] | 12.7 | ≥ 10000
COc1cc(-c2nccc(-c3cccc(-c4ccc(CN5CCC(NC(C)=O)CC5)c(OC)n4)c3Cl)c2Cl)ccc1CN1CC2(CNC(=O)C2)C1 [Example 355, N-(1-((6-(2-Chloro-3-(3-chloro-2-(3-methoxy-4-((7-oxo-2,6-diazaspiro[3.4]octan-2-yl)methyl)phenyl)pyridin-4-yl)phenyl)-2-methoxypyridin-3-yl)methyl)piperidin-4-yl)acetamide] | 1.27 | 28.7
COc1cc(-c2nccc(-c3cccc(-c4ccc(CNC5CCOCC5)c(OC)n4)c3Cl)c2Cl)ccc1CN(C)C1CCOCC1 [Example 441, N-(4-(3-chloro-4-(2-chloro-3-(6-methoxy-5-(((tetrahydro-2H-pyran-4-yl)amino)methyl)pyridin-2-yl)phenyl)pyridin-2-yl)-2-methoxybenzyl)-N-methyltetrahydro-2H-pyran-4-amine] | 5.61 | 149
